{
  "source": "patent US20250206714A1",
  "about": "“COMPOSITIONS AND METHODS FOR TREATMENT OF INFLAMMATORY DISEASES” (Invea Therapeutics, Inc., priority 2022, published 2025)",
  "key": {"CYP 2C9": {"target": "T1, CYP 2C9 (Homo sapiens, UniProt P11712)", "T1 construct": "The experiment was conducted in human liver microsomes; from tissue; host or cells: human liver microsomes", "T1 sequence (P11712 whole entry)": "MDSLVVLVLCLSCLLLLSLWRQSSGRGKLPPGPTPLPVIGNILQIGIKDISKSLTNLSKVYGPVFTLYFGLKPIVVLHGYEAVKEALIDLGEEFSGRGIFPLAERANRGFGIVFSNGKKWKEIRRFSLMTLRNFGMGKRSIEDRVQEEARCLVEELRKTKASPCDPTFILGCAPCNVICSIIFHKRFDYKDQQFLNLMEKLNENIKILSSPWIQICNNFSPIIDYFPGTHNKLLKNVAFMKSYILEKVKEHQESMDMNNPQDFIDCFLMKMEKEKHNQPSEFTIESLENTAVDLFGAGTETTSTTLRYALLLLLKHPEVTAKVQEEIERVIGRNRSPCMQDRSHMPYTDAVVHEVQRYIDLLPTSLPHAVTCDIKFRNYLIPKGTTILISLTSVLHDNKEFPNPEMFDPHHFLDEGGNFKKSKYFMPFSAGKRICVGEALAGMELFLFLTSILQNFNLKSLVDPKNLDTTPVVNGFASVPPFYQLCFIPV", "assay": "Metabolic stability in human liver microsomes with CYP 2C9 inhibitor Sulfaphenazole", "assay_type": "in vitro ADME", "settings": "1 μM + Sulfaphenazole (20 μM)"}, "[1]": {"assay": "Metabolic stability assay in human liver microsomes in the presence of specific cytochrome P450 inhibitors (arm without inhibitor, summary statements)", "settings": "for % rem @ 5 min / % rem @ 15 min / % rem @ 30 min / % rem @ 45 min: 1 μM, no inhibitor"}, "MDR1 (P-gp)": {"tested_on": "MDR1 (P-gp)", "assay": "in vitro", "design": "Papp A→B at 60 min / Papp B→A at 60 min / efflux ratio at 60 min / recovery at 60 min / % recovery Apical concentration-Basal concentration / % recovery Basal concentration-Apical concentration: dose or concentration left out as unconfirmed", "settings": "dog; for efflux ratio at 60 min: MDCK-MDR1", "experimental": "(§1) Digoxin is used as reference and lucifer yellow is used as the integrity marker. […] Papp, efflux ratio and percent recovery are calculated."}, "MDR1": {"tested_on": "MDR1", "assay": "in vitro", "design": "Papp A→B at 60 min / Papp B→A at 60 min / efflux ratio at 60 min / recovery at 60 min / % recovery Apical concentration-Basal concentration / % recovery Basal concentration-Apical concentration: dose or concentration left out as unconfirmed", "settings": "dog, MDCK-MDR1", "experimental": "as §1"}, "IL-1β": {"tested_on": "IL-1β", "assay": "LPS+ATP-induced model of inflammasome activation, plasma IL-1β by ELISA", "assay_type": "in vivo, Balb/c mice", "settings": "20 mg/kg, Intraperitoneal; mice plasma", "experimental": "The procedures detailed here can be utilized for testing all compounds of the disclosure. The example utilizes LPS+ATP-induced model of inflammasome activation in 8-10 weeks old male Balb/c mice for in vivo testing.\n8-10 weeks old male Balb/c mice were challenged by intraperitoneal (i.p.) injection of 200 μg/Kg (0.2 μg/g) LPS at t=0 hr, followed by i.p. injection of 5 mM solution of ATP at t=2 hr (2 h after LPS challenge). The compound of disclosure being tested for inhibitory activity (such as Compound 6) was administered both via intraperitoneal and oral route at −1 hr. Different doses of the compound of the disclosure were given to the mice […] as shown below.\nMCC950, a specific small molecule inhibitor of NLRP3 inflammasome was used as a positive control to enable comparison of inhibitory activity of the compounds of the disclosure along with a known inhibitor. 2.5 hours after the LPS priming (or 0.5 hours after ATP administration), blood was collected via retro-orbital bleeding in heparinized blood collection tubes. Blood was centrifuged for 5 minutes at 10,000 rpm in a refrigerated centrifuge to obtain plasma. Separated plasma was used for cytokine assessment by ELISA. The standard curve (OD VS concentration) for IL-1β was also plotted and used to determine the IL-1β concentration for the OD values. The percentage of inhibition of IL-1β was calculated using the formula: […]"}, "CYP 3A4": {"target": "CYP 3A4 (Homo sapiens, UniProt P08684)", "sequence (P08684 whole entry)": "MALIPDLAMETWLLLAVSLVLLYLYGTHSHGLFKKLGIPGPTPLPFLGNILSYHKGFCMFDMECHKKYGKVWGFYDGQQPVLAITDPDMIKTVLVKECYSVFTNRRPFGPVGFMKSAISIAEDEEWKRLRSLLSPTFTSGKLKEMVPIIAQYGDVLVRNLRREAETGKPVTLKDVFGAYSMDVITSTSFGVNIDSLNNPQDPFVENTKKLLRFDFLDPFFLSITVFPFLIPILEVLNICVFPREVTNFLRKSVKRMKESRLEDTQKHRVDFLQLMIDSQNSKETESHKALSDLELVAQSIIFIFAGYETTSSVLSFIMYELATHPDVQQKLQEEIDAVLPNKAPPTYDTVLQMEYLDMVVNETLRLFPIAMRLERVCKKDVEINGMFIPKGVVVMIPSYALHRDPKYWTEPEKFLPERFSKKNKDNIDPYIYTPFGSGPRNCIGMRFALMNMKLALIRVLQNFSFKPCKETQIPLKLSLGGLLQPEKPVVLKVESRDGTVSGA", "assay": "Metabolic stability in human liver microsomes with CYP 3A4 inhibitor Ketoconazole", "settings": "1 μM + Ketoconazole (20 μM)"}, "CYP 2C19": {"target": "T2, CYP 2C19 (Homo sapiens, UniProt P33261)", "T2 construct": "The experiment was conducted in human liver microsomes; from tissue; host or cells: human liver microsomes", "T2 sequence (P33261 whole entry)": "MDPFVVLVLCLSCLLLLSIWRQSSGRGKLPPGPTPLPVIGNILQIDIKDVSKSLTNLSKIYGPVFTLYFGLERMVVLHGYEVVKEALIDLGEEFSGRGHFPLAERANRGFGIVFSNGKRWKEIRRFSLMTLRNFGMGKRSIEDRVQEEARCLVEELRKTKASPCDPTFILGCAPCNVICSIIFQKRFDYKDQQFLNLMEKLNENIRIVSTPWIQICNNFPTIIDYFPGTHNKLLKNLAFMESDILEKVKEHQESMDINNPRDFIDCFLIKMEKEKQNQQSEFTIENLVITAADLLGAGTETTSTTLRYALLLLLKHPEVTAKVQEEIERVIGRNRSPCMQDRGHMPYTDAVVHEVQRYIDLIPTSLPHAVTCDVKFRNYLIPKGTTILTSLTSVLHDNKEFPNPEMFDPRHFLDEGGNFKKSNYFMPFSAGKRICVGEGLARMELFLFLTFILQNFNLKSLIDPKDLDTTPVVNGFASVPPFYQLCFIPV", "assay": "Metabolic stability in human liver microsomes with CYP 2C19 inhibitor Nootkatone", "assay_type": "in vitro ADME", "settings": "1 μM + Nootkatone (20 μM)"}, "CYP 1A2": {"target": "T3, CYP 1A2 (Homo sapiens, UniProt P05177)", "T3 construct": "The experiment was conducted in human liver microsomes; from tissue; host or cells: human liver microsomes", "T3 sequence (P05177 1-516)": "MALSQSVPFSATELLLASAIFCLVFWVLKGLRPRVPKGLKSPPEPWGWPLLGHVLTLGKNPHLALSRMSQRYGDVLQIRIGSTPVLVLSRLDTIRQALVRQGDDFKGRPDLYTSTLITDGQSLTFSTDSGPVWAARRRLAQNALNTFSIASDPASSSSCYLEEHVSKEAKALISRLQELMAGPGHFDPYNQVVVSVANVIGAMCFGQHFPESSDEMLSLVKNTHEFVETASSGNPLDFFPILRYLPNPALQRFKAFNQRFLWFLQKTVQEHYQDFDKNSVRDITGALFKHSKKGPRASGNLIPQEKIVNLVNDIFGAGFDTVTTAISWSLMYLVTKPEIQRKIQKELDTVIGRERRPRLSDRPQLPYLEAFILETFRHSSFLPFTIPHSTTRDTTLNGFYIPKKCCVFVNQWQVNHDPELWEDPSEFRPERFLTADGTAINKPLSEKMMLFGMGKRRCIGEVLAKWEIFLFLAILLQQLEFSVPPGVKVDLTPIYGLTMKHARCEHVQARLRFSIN", "assay": "Metabolic stability in human liver microsomes with CYP 1A2 inhibitor Furafylline", "assay_type": "in vitro ADME", "settings": "1 μM + Furafylline (20 μM)"}, "[2]": {"tested_on": "MDR1 transfected Madin-Darby canine kidney (MDCK) cell monolayer", "assay": "Permeability assay (MDR1-MDCK)", "design": "Papp A→B at 60 min / Papp B→A at 60 min / efflux ratio at 60 min / recovery at 60 min / % recovery Apical concentration-Basal concentration / % recovery Basal concentration-Apical concentration: dose or concentration left out as unconfirmed", "settings": "Permeability (MDR1-MDCK) @", "experimental": "as §1"}, "[3]": {"settings": "MDCK-MDR1, % recovery Apical concentration-Basal concentration"}, "[4]": {"settings": "MDCK-MDR1, % recovery Basal concentration-Apical concentration"}, "[5]": {"settings": "human, human liver microsomes, pH 7.4"}},
  "data": [
    {"compound": "O=C(O)Cc1ccccc1Nc1c(Cl)cccc1Cl", "note": "[Diclofenac, reference compound]", "values": [
      {"measurement": "% rem @ 5 min", "setting": "CYP 2C9", "result": "~100", "unit": "%"},
      {"measurement": "% rem @ 15 min", "setting": "CYP 2C9", "result": "~100", "unit": "%"},
      {"measurement": "% rem @ 30 min", "setting": "CYP 2C9", "result": 91.9, "unit": "%"},
      {"measurement": "% rem @ 45 min", "setting": "CYP 2C9", "result": 82.0, "unit": "%"},
      {"measurement": "half-life at 1 µM", "setting": "CYP 2C9; pH 7.4, with Sulfaphenazole 20 μM", "result": 131, "unit": "min"},
      {"measurement": "microsomal CLint at 1 μM", "setting": "CYP 2C9; pH 7.4, with Sulfaphenazole 20 μM, read-out: mCLint", "result": 10.6, "unit": "µL/min/mg"},
      {"measurement": "% rem @ 5 min", "setting": "[1]; human liver microsomes", "result": 49.5, "unit": "%"},
      {"measurement": "% rem @ 15 min", "setting": "[1]; human liver microsomes", "result": 28.3, "unit": "%"},
      {"measurement": "% rem @ 30 min", "setting": "[1]; human liver microsomes", "result": 10.5, "unit": "%"},
      {"measurement": "% rem @ 45 min", "setting": "[1]; human liver microsomes", "result": 4.93, "unit": "%"}
    ]},
    {"compound": "C[C@H]1O[C@@H](O[C@H]2[C@@H](O)C[C@H](O[C@H]3[C@@H](O)C[C@H](O[C@H]4CC[C@@]5(C)[C@H](CC[C@@H]6[C@@H]5C[C@@H](O)[C@]5(C)[C@@H](C7=CC(=O)OC7)CC[C@]65O)C4)O[C@@H]3C)O[C@@H]2C)C[C@H](O)[C@@H]1O", "note": "[Digoxin]", "values": [
      {"measurement": "efflux ratio at 60 min", "setting": "MDR1 (P-gp)", "result": 54.3},
      {"measurement": "recovery at 60 min", "setting": "MDR1 (P-gp); [3]", "result": 99.9, "unit": "%"},
      {"measurement": "recovery at 60 min", "setting": "MDR1 (P-gp); [4]", "result": "~100", "unit": "%"},
      {"measurement": "Papp A→B at 60 min", "setting": "MDR1", "result": 0.28, "unit": "×10⁻⁶ cm/s"},
      {"measurement": "Papp B→A at 60 min", "setting": "MDR1", "result": 15.2, "unit": "×10⁻⁶ cm/s"}
    ]},
    {"compound": "CC(C)(O)c1coc(S(=O)(=O)NC(=O)Nc2c3c(cc4c2CCC4)CCC3)c1", "note": "[MCC950, reference compound]", "values": [
      {"measurement": "% IL-1 β inhibition", "setting": "IL-1β", "result": 95, "unit": "%"}
    ]},
    {"compound": "Cc1ncc2n1-c1ccc(Cl)cc1C(c1ccccc1F)=NC2", "note": "[Midazolam]", "values": [
      {"measurement": "% rem @ 5 min", "setting": "CYP 3A4", "result": 96.7, "unit": "%"},
      {"measurement": "% rem @ 15 min", "setting": "CYP 3A4", "result": 97.1, "unit": "%"},
      {"measurement": "% rem @ 30 min", "setting": "CYP 3A4", "result": "~100", "unit": "%"},
      {"measurement": "% rem @ 45 min", "setting": "CYP 3A4", "result": "~100", "unit": "%"},
      {"measurement": "% rem @ 5 min", "setting": "[1]; human liver microsomes", "result": 22.0, "unit": "%"},
      {"measurement": "% rem @ 15 min", "setting": "[1]; human liver microsomes", "result": 2.77, "unit": "%"},
      {"measurement": "% rem @ 30 min", "setting": "[1]; human liver microsomes", "result": "<1", "unit": "%"},
      {"measurement": "% rem @ 45 min", "setting": "[1]; human liver microsomes", "result": "<1", "unit": "%"},
      {"measurement": "half-life at 1 µM", "setting": "[1]; human, microsomes, pH 7.4", "result": 5.21, "unit": "min"}
    ]},
    {"compound": "COc1ccc2[nH]c([S+]([O-])Cc3ncc(C)c(OC)c3C)nc2c1", "note": "(centres unmarked) [Omeprazole, reference compound]", "values": [
      {"measurement": "% rem @ 5 min", "setting": "CYP 2C19", "result": 94.8, "unit": "%"},
      {"measurement": "% rem @ 15 min", "setting": "CYP 2C19", "result": 92.7, "unit": "%"},
      {"measurement": "% rem @ 30 min", "setting": "CYP 2C19", "result": 85.0, "unit": "%"},
      {"measurement": "% rem @ 45 min", "setting": "CYP 2C19", "result": 55.6, "unit": "%"},
      {"measurement": "half-life at 1 µM", "setting": "CYP 2C19; pH 7.4, with Nootkatone 20 μM", "result": 59.3, "unit": "min"},
      {"measurement": "microsomal CLint at 1 μM", "setting": "CYP 2C19; pH 7.4, with Nootkatone 20 μM, read-out: mCLint", "result": 23.4, "unit": "µL/min/mg"},
      {"measurement": "% rem @ 5 min", "setting": "[1]; human liver microsomes", "result": 95.9, "unit": "%"},
      {"measurement": "% rem @ 15 min", "setting": "[1]; human liver microsomes", "result": 71.1, "unit": "%"},
      {"measurement": "% rem @ 30 min", "setting": "[1]; human liver microsomes", "result": 60.1, "unit": "%"},
      {"measurement": "% rem @ 45 min", "setting": "[1]; human liver microsomes", "result": 28.8, "unit": "%"},
      {"measurement": "half-life at 1 µM", "setting": "[1]; [5]", "result": 26.4, "unit": "min"},
      {"measurement": "microsomal CLint at 1 μM", "setting": "[1]; [5]", "result": 52.6, "unit": "µL/min/mg"}
    ]},
    {"compound": "CCOc1ccc(NC(C)=O)cc1", "note": "[Phenacetin, reference compound]", "values": [
      {"measurement": "% rem @ 5 min", "setting": "CYP 1A2", "result": "~100", "unit": "%"},
      {"measurement": "% rem @ 15 min", "setting": "CYP 1A2", "result": "~100", "unit": "%"},
      {"measurement": "% rem @ 30 min", "setting": "CYP 1A2", "result": "~100", "unit": "%"},
      {"measurement": "% rem @ 45 min", "setting": "CYP 1A2", "result": 71.9, "unit": "%"},
      {"measurement": "half-life at 1 µM", "setting": "CYP 1A2; pH 7.4, with Furafylline 20 μM", "result": 102, "unit": "min"},
      {"measurement": "microsomal CLint at 1 μM", "setting": "CYP 1A2; pH 7.4, with Furafylline 20 μM, read-out: mCLint", "result": 13.6, "unit": "µL/min/mg"}
    ]},
    {"compound": "CC(C)NCC(O)COc1cccc2ccccc12", "note": "(centres unmarked) [Propranolol]", "values": [
      {"measurement": "efflux ratio at 60 min", "setting": "MDR1 (P-gp)", "result": 1.01},
      {"measurement": "recovery at 60 min", "setting": "MDR1 (P-gp); [3]", "result": 71.5, "unit": "%"},
      {"measurement": "recovery at 60 min", "setting": "MDR1 (P-gp); [4]", "result": "~100", "unit": "%"},
      {"measurement": "Papp A→B at 60 min", "setting": "MDR1", "result": 47.5, "unit": "×10⁻⁶ cm/s"},
      {"measurement": "Papp B→A at 60 min", "setting": "MDR1", "result": 48.2, "unit": "×10⁻⁶ cm/s"}
    ]},
    {"compound": "Lucifer yellow", "values": [
      {"measurement": "% recovery Apical concentration-Basal concentration", "setting": "[2]", "result": 97.2, "unit": "%"},
      {"measurement": "% recovery Basal concentration-Apical concentration", "setting": "[2]", "result": 97.1, "unit": "%"}
    ]}
  ]
}
